According to publication PMC5656322, “BAK1 is involved in AtRALF1-induced inhibition of root cell expansion” (PLoS Genetics, 2017):
Where no end group is shown, it is not given here.

Assays:
[1] = test system: BAK7 (BAK7-ECD); experiment: Yeast two-hybrid with BAK7-ECD; format: binding, Arabidopsis thaliana; conditions: yeast AH109, medium lacking Leu, Trp, His
From the text: Fig 6 AtRALF1 interacts physically with BAK1 protein. (A) The active AtRALF1 peptide interacts with the extracellular domain (ECD) of BAK1 (BAK1-ECD) in yeast. The AtRALF1 protein fused to the GAL4 DNA-binding domain (AtRALF1-pGBKT7) was used as bait to test its interaction with the extracellular domain of the proteins fused to the GAL4 activation domain (pGADT7): BAK1 (BAK1-ECD), BAK7 (BAK7-ECD), BRI1 (BRI1-ECD) and FLS2 (FLS2-ECD). (B) Blueprint showing the truncated proteins from the extracellular domain of BAK1 tested in the two-hybrid assay. The extracellular domain of BAK1 comprises leucine zippers (LZ), 5 leucine rich-regions (LRRs) and a proline-rich region (pro-rich). (C) AtRALF1-pGBKT7 was used as bait to test its interaction with truncated proteins fused to the GAL4 activation domain (pGADT7). […] HA-BAK1-ECD was detected with an anti-HA antibody. AtRALF1 was detected with an anti-RALF antibody. […] BAK1-GFP was detected with an anti-GFP antibody. […]
The coding regions of the mature peptides AtRALF1 and AtRALF34 were amplified from Arabidopsis genomic DNA and fused to the GAL4 DNA-binding domain and the MYC epitope tag using the NdeI/BamHI sites in the pGBKT7 (Clontech) vector. […] The proteins fused to the HA and MYC epitope tags were detected by protein blotting. […]

[2] = test system: BAK1; experiment: BAK1 phosphorylation assay, anti-phosphoserine; format: in vivo, Arabidopsis thaliana; conditions: pBAK1:BAK1-6xHA roots; 1, 2 and 10 μM, 20 min
Description: Transgenic plants pBAK1:BAK1-6xHA were grown in vertical plates for 10–15 days. The plants were treated with 0.1 μM BL, 2 μM RALF1(9–49), 1 μM, 2 μM or 10 μM AtRALF1 for 20 min. The roots were isolated, and the microsomal fractions were obtained as described above. The microsomal fractions were incubated with anti-HA beads (EZview Red Anti-HA Affinity Gel, Sigma) for 2 h at 4 °C to immunoprecipitate the BAK1 protein. The unbound materials were removed by washing 3 times. Proteins were separated by SDS/PAGE and further analyzed by protein blotting using anti-HA (Thermo Scientific), or anti-phosphothreonine (Novus Biologicals), or anti-phosphoserine (Novus Biologicals) antibodies.

[3] = ITC of AtRALF1 into buffer; format: physicochemical; conditions: AtRALF1 0.7 mM injected in 15 mM HEPES, pH 6.8, 25°C (S15A Fig)
Description: ITC was performed using a VP ITC with a 1.4 ml standard cell and a 293 μl titration syringe. Proteins were dissolved in ITC buffer (15 mM HEPES (4-(2-hydroxyethyl)-1-piperazineethanesulfonic acid, pH 6.8) and the experiments were performed at 25°C. Molar protein concentration for BAK1-ECD and AtRALF1 were calculated using their molecular weight of 25,654.04 and 7,631 Da, respectively (determined by HPLC). The concentrations for the complex titrations were 0.7 mM of protein (BAK1-ECD) in the syringe and 0.03 mM of ligand (AtRALF1) in the cell at time intervals of 300 s (28 injections of volume 10 μl) to ensure that the titration peak returned to the baseline.
Supplementary file pgen.1007053.s015.pdf: S15 Fig Isothermal titration calorimetry (ITC) of AtRALF1 and BAK1-ECD. (A) AtRALF1 in 15mM HEPES, pH 6.8. ITC experiments were simulated using the following parameters: 28 injections of AtRALF1 (0.7 mM, volume 10 μL) in HEPES (volume cell = 1.4 mL) at 25°C. (B) BAK1-ECD in 15mM HEPES, pH 6.8. ITC experiments were simulated using the following parameters: 28 injections of BAK1-ECD (0.7 mM, volume 10 μL) in HEPES (volume cell = 1.4 mL) at 25°C. (C) HEPES in AtRALF1. ITC experiments were simulated using the following parameters: 28 injections of buffer 15mM HEPES, pH 6.8 (volume 10 μL) in AtRALF1 (0.03 mM, volume cell = 1.4 mL) at 25°C. (PDF) Click here for additional data file.

[4] = test system: AtPRP3, AtHRGP2, CPD and DWF4 genes; conditions: cited from earlier work
From the text: AtRALF1-overexpressing plants are less sensitive to exogenous brassinosteroids (BRs). […] AtRALF1 also induces two cytochrome P450 monooxygenase genes related to the BR biosynthetic pathway: Constitutive Photomorphism and Dwarfism (CPD) and DWARF4 (DWF4). We exposed the bak1 mutants to the same concentration of AtRALF1 and evaluated the capacity to induce the AtPRP3, AtHRGP2, CPD and DWF4 genes. None of the AtRALF1-inducible genes were ...

Question: What does the source list for “AtRALF1: root-specific RALF isoform in Arabidopsis; recombinant peptide hormone produced in E. coli (ATTKYISYQSLKRNSVPCSRRGASYYNCQNGAQANPYSRGCSKIARCRS; ends and bridges not checked; cysteine pairing not given here)”?
Answer: interaction with BAK7-ECD (Y2H complementation) [1]: able to complement only the BAK1-ECD construct; BAK1 serine phosphorylation [2]: no changes were detected; heat of dissociation [3]: exhibits heat of dissociation; induction of AtPRP3 and AtHRGP2 genes ([4]; Arabidopsis seedling roots, ref [9]): induces, in a dose-dependent manner; induction of CPD and DWF4 genes ([4]; ref [9]): induces; AtEXPA5 expression ([4]; roots of treated seedlings, ref [16]–[18]): repressed in the roots of AtRALF1-treated seedlings
